Like-named read-outs stand apart in the source and are kept apart here.
Legend:
[1] = test system: chiens; assay: Duration of the vasodilator action, repeated intraduodenal administration in dogs; format: in vivo, chien
Experimental: Trois chiens (poids moyen 11,1 kg) reçoivent le CRL 41 080 par voie intraduodénale à la dose de 5 mg/kg à deux reprises (délai entre les deux administrations : 90 min) puis 6 mg/kg I.D. de LL 1656 et, 2 heures plus tard, une nouvelle administration de 5 mg/kg I.D. de CRL 41 080.

[2] = test system: chiens anesthésiés; assay: Femoral vasodilator action by intravenous infusion in anaesthetised dogs; format: in vivo, chien
Experimental: Deux chiens (poids moyen 12,4 kg) anesthésiés au pento- barbital reçoivent le CRL 41 080 par voie intraveineuse, en perfusion de 6 min, aux doses successives de 2 fois 1 mg/kg, puis 2 et 4 mg/kg toutes les 60 min. Pour comparaison, ces animaux reçoivent en fin d'essai une perfusion de 6 mg/kg I.V. d'un produit de référence connu, le LL 1656 précité.

[3] = Acute toxicity, DL-50 I.V. in male mice; settings: mouse, in vivo, iv, lots de 10 souris mâles
Source text: (§1) Le tableau I concerne la toxicité chez la souris mâle, d'une part, et la dose minimale induisant chez le chien anesthésié une action vasodilatatrice fémorale nette, d'autre part. La DL-50 I.V. a été déterminée sur des lots de 10 souris mâles; la dose minimale vasodilatatrice a été déterminée sur un lot de 5 chiens servant de témoins par rapport à eux-mêmes et recevant chaque dose de produit à tester toutes les 2,5 heures.

[4] = test system: chiens anesthésiés; assay: Vasodilator action by intraduodenal route in anaesthetised dogs; format: in vivo, chien; settings: voie intraduodénale
Source text: On mesure la pression artérielle, la fréquence cardiaque, le débit artériel fémoral, le débit artériel vertébral, les températures rectale et cutanée.

[5] = test system: chien anesthésié; assay: Minimal dose inducing a clear femoral vasodilator action in the anaesthetised dog; format: in vivo; settings: Canis lupus familiaris, lot de 5 chiens
Source text: as §1

[6] = Solubility in water (observation on the isolated product); format: physicochemical; settings: poudre blanche
Experimental: On fait passer entre -5°C et 0°C pendant 2,5 h un courant d'acide chlorhydrique sec au sein d'une solution de 16,8 g (0,10 mole) de 1,3,5-triméthoxybenzène et de 16,6 g (0,10 mole) de 4-hexaméthylèneimino-butyronitrile en solution dans 115 ml de chlorobenzène anhydre. On abandonne la suspension au froid entre 0°C et +4°C une nuit et on extrait le milieu réactionnel par de l'eau. On porte la phase aqueuse au reflux pendant 1 h, on alcalinise par de la soude concentrée et on extrait le précipité par de l'éther diéthylique pour donner 29,8 g d'une huile jaune pale. Cette huile est traitée dans l'éther diéthylique par de l'éthanol chlorhydrique. […] Finst (^Kofler) = 150°C.

[7] = test system: chien anesthésié; assay: Cardiovascular properties in the anaesthetised dog, I.V. (arterial pressures, heart rate, femoral arterial flow); format: in vivo
Source text: Le tableau II concerne les variations des pressions […]. systolique, diastolique, […]équence cardiaque et du débit artériel fémoral.

[8] = test system: homme; assay: Clinical trials in man; format: in vivo; settings: voie orale (trois gélules par jour de 100 mg) et voie injectable (I.V. ou I.M., une ampoule par jour de 40 mg)
[9] = Antispasmodic properties (no method described)
[10] = 5 mg/kg I.D., first administration
[11] = 5 mg/kg I.D., second administration
[12] = dose supplémentaire de 5 mg/kg I.D., 2 heures after LL 1656
[13] = I.V., perfusion de 6 min, 2 fois 1 mg/kg puis 2 et 4 mg/kg, deux chiens
[14] = intraduodenal, par voie I.D., '-(d)' = pas d'action vasodilatatrice par voie I.D., read-out: dose minimale induisant chez le chien anesthésié une action vasodilatatrice fémorale par voie I.D.
[15] = iv, par voie I.V., read-out: dose minimale induisant chez le chien anesthésié une action vasodilatatrice fémorale par voie I.V.
[16] = 6 mg/kg I.D., after two administrations of CRL 41 080

COc1cc(OC)c(C(=O)CCCN2CCCCCC2)c(OC)c1 [CRL 41080, chlorhydratede (2,4,6-triméthoxyphényl)-(3-hexaméthylèneiminopropyl)-cétone]
autres paramètres mesurés [1, 10]: ne sont pas modifiés | time at which the effect on débit fémoral has disappeared [1, 10]: 120 min | time at which the effect on débit fémoral has lost half of its intensity [1, 10]: 60 min | time of maximal effect on débit fémoral [1, 10]: 30 min | débit fémoral ([1]; 5 mg/kg I.D., first administration, trois chiens): augmente le débit fémoral | débit vertébral ([1]; 5 mg/kg I.D., repeated): ne diminue pas le débit vertébral | persistence of the effect on débit fémoral [1, 11]: encore présent à 120 min | time of maximal effect on débit fémoral [1, 11]: 30 min | débit fémoral ([1]; 5 mg/kg I.D., second administration (90 min after the first)): effet plus intense sur le débit fémoral | débit fémoral [1, 12]: n'augmente pas davantage le débit fémoral | pression artérielle, fréquence cardiaque [1, 12]: entraîne une hypotension et une bradycardie | débit fémoral [2, 13]: le débit fémoral augmente pendant la durée de la perfusion dès 1 mg/kg | pression artérielle, fréquence cardiaque [2, 13]: ne modifie pas la pression artérielle ni la fréquence cardiaque | LD50 [3]: 96 ± 3 mg/kg | débit vertébral ([4]; doses successives 0,5 - 10 mg/kg): il semble que le débit vertébral soit diminué, mais cet effet n'est pas statistiquement significatif | débit fémoral ([4]; doses successives 0,5 - 10 mg/kg, quatre chiens): augmente nettement le débit fémoral à partir de la dose de 5 mg/kg | durée de l'effet sur le débit fémoral ([4]; à partir de 5 mg/kg): plus d'une heure | minimal effective dose [5, 14]: 5 mg/kg | minimal effective dose [5, 15]: 1 mg/kg | solubilité dans l'eau [6]: soluble dans l'eau | Variation 0,25 h après administration P.A. systolique ([7]; 1 mg/kg I.V., 0,25 h après administration): 0 | Variation 0,25 h après administration P.A. moyenne ([7]; 2 mg/kg I.V., 0,25 h après administration): 0 | résultats des essais cliniques chez l'homme [8]: bons résultats | propriétés antispasmodiques [9]: ne présente pas les propriétés antispasmodiques

COc1cc(OC)c(C(=O)CCCN2CCCCC2)c(OC)c1 [LL 1647, chlorhydratede (2,4,6-triméthoxyphényl)-(3-pipéridi-nopropyl)-cétone]
LD50 [3]: 68 ± 4 mg/kg | minimal effective dose [5, 15]: 5 mg/kg

COc1cc(OC)c(C(=O)CCCN2CCCC2)c(OC)c1 [LL 1656, chlorhydratede (2,4,6-triméthoxyphényl)-(3-pyrrolidinopropyl)-cétone, reference compound]
débit fémoral [1, 16]: augmentation de débit fémoral d'intensité moyenne | time of maximal effect on débit fémoral [1, 16]: 120 min | débit fémoral ([2]; perfusion de 6 mg/kg I.V. en fin d'essai, comparison with 1 mg/kg of CRL 41 080): augmente moins le débit fémoral que 1 mg/kg de CRL 41 080 | LD50 [3]: 60 ± 2.2 mg/kg | minimal effective dose [5, 14]: 6 mg/kg | minimal effective dose [5, 15]: 5 mg/kg | Variation 0,25 h après administration Fréquence cardiaque ([7]; 6 mg/kg I.V., 0,25 h après administration): 0

Source: EP0110748A1, “Derivatives of phenyl-(3-aminopropyl) ketone, their therapeutical use and process for their preparation” (LABORATOIRE L. LAFON Société anonyme dite:, priority 1982, dated 1984)
